Laboratory results: US20040087633A1, “Methylidene oxazolidinone compound and preparation method thereof” (Korea Institute of Science and Technology, priority 2002, published 2004)
Converted amounts (≈) assume the structure as drawn.

How the values were obtained:
Test in all cases: Anti-microbial activity test in vitro (agar dilution MIC)
CRSA C6043 = assay type: cell-based, Staphylococcus aureus; details: CRSA C6043; Agar Dilution method, Mueller Hinton Agar, 18 hours at 37° C.
Protocol: (§1) Anti-microbial activity test in vitro
(§2) Strains were cultivated for 18 hours at 37° C. in Agar Dilution method using Mueller Hinton Agar, and then plane plates inoculated with the strains by diluting them two times gradually were aligned in a row. Minimum inhibition concentration (MIC, μg/ml) for the representative compounds of the present invention, Linezolid (LZD) and vancomycin (VAN) were decided through visual observation, and the results are shown in the following tables 2 and 3.

MSSA C7142 = assay type: cell-based, Staphylococcus aureus; details: MSSA C7142; Agar Dilution method, Mueller Hinton Agar, 18 hours at 37° C.
Protocol: as §1, §2

MRSA C2207 = assay type: cell-based, Staphylococcus aureus; details: MRSA C2207; Agar Dilution method, Mueller Hinton Agar, 18 hours at 37° C.
Protocol: as §1, §2

MSSA C2214 = assay type: cell-based, Staphylococcus aureus; details: MSSA C2214; Agar Dilution method, Mueller Hinton Agar, 18 hours at 37° C.
Protocol: as §1, §2

MRSA C5100 = assay type: cell-based, Staphylococcus aureus; details: MRSA C5100; Agar Dilution method, Mueller Hinton Agar, 18 hours at 37° C.
Protocol: as §1, §2

MRSA C6068 = assay type: cell-based, Staphylococcus aureus; details: MRSA C6068; Agar Dilution method, Mueller Hinton Agar, 18 hours at 37° C.
Protocol: as §1, §2

CRSA C1062 = assay type: cell-based, Staphylococcus aureus; details: CRSA C1062; Agar Dilution method, Mueller Hinton Agar, 18 hours at 37° C.
Protocol: as §1, §2

VRE C6488 = assay type: cell-based, Enterococcus faecium; details: VRE C6488; Agar Dilution method, Mueller Hinton Agar, 18 hours at 37° C.
Protocol: as §1, §2

VRE C6487 = assay type: cell-based, Enterococcus faecium; details: VRE C6487; Agar Dilution method, Mueller Hinton Agar, 18 hours at 37° C.
Protocol: as §1, §2

S. epidermidis C2230 = assay type: cell-based; details: S. epidermidis C2230; Agar Dilution method, Mueller Hinton Agar, 18 hours at 37° C.
Protocol: as §1, §2

S. aureus ATCC 29213 = assay type: cell-based; details: Agar Dilution method, Mueller Hinton Agar, 18 hours at 37° C.
Protocol: as §1, §2

S. pyogenes C6012 = assay type: cell-based; details: S. pyogenes C6012; Agar Dilution method, Mueller Hinton Agar, 18 hours at 37° C.
Protocol: as §1, §2

S. epidermidis C2235 = assay type: cell-based; details: S. epidermidis C2235; Agar Dilution method, Mueller Hinton Agar, 18 hours at 37° C.
Protocol: as §1, §2

S. epidermidis ATCC12228 = assay type: cell-based; details: S. epidermidis ATCC12228; Agar Dilution method, Mueller Hinton Agar, 18 hours at 37° C.
Protocol: as §1, §2

E. faecalis ATCC29212 = assay type: cell-based; details: E. faecalis ATCC29212; Agar Dilution method, Mueller Hinton Agar, 18 hours at 37° C.
Protocol: as §1, §2

E. faecium C2252 = assay type: cell-based; details: E. faecium C2252; Agar Dilution method, Mueller Hinton Agar, 18 hours at 37° C.
Protocol: as §1, §2

E. faecalis C6291 = assay type: cell-based; details: E. faecalis C6291; Agar Dilution method, Mueller Hinton Agar, 18 hours at 37° C.
Protocol: as §1, §2

E. faecalis C6288 = assay type: cell-based; details: E. faecalis C6288; Agar Dilution method, Mueller Hinton Agar, 18 hours at 37° C.
Protocol: as §1, §2

S. pyogenes C6003 = assay type: cell-based; details: S. pyogenes C6003; Agar Dilution method, Mueller Hinton Agar, 18 hours at 37° C.
Protocol: as §1, §2

S. pyogenes ATCC8668 = assay type: cell-based; details: S. pyogenes ATCC8668; Agar Dilution method, Mueller Hinton Agar, 18 hours at 37° C.
Protocol: as §1, §2

E. faecium C6301 = assay type: cell-based; details: E. faecium C6301; Agar Dilution method, Mueller Hinton Agar, 18 hours at 37° C.
Protocol: as §1, §2

| SMILES | Minimum inhibition concentration (MIC) (CRSA C6043) [µg/mL] | Minimum inhibition concentration (MIC) (MSSA C7142) [µg/mL] | Minimum inhibition concentration (MIC) (MRSA C2207) [µg/mL] | Minimum inhibition concentration (MIC) (MSSA C2214) [µg/mL] | Minimum inhibition concentration (MIC) (MRSA C5100) [µg/mL] | Minimum inhibition concentration (MIC) (MRSA C6068) [µg/mL] | Minimum inhibition concentration (MIC) (CRSA C1062) [µg/mL] | Minimum inhibition concentration (MIC) (VRE C6488) [µg/mL] | Minimum inhibition concentration (MIC) (VRE C6487) [µg/mL] | Minimum inhibition concentration (MIC) (S. epidermidis C2230) [µg/mL] | Minimum inhibition concentration (MIC) (S. aureus ATCC 29213) [µg/mL] | Minimum inhibition concentration (MIC) (S. pyogenes C6012) [µg/mL] | Minimum inhibition concentration (MIC) (S. epidermidis C2235) [µg/mL] | Minimum inhibition concentration (MIC) (S. epidermidis ATCC12228) [µg/mL] | Minimum inhibition concentration (MIC) (E. faecalis ATCC29212) [µg/mL] | Minimum inhibition concentration (MIC) (E. faecium C2252) [µg/mL] | Minimum inhibition concentration (MIC) (E. faecalis C6291) [µg/mL] | Minimum inhibition concentration (MIC) (E. faecalis C6288) [µg/mL] | Minimum inhibition concentration (MIC) (S. pyogenes C6003) [µg/mL] | Minimum inhibition concentration (MIC) (S. pyogenes ATCC8668) [µg/mL] | further results |
| --- | --- | --- | --- | --- | --- | --- | --- | --- | --- | --- | --- | --- | --- | --- | --- | --- | --- | --- | --- | --- | --- |
| CC(=O)NC[C@H]1CN(c2ccc(N3CCC(=Cc4cc(-c5cccs5)no4)CC3)c(F)c2)C(=O)O1 [Compound 9, N-[[(5S)-3-[3-fluoro-4-((4-(3-thiophen-2-yl-5-isoxazolyl)-methylidene)piperidinyl)phenyl]-2-oxo-5-oxazolidinyl]methyl]acetamide] | 16 (≈ 32.2 µM) | 32 (≈ 64.4 µM) | 32 (≈ 64.4 µM) | 16 (≈ 32.2 µM) | 16 (≈ 32.2 µM) | 16 (≈ 32.2 µM) | 32 (≈ 64.4 µM) | 16 (≈ 32.2 µM) | 16 (≈ 32.2 µM) | 8 (≈ 16.1 µM) | 32 (≈ 64.4 µM) | 4 (≈ 8.06 µM) | 8 (≈ 16.1 µM) | 4 (≈ 8.06 µM) | 16 (≈ 32.2 µM) | 16 (≈ 32.2 µM) | 16 (≈ 32.2 µM) | 16 (≈ 32.2 µM) | 16 (≈ 32.2 µM) | 2 (≈ 4.03 µM) | Minimum inhibition concentration (MIC) (E. faecium C6301): 16 µg/mL (≈ 32.2 µM) |
| CC(=O)NC[C@H]1CN(c2ccc(N3CCC(=Cc4cc(-c5csnc5C)no4)CC3)c(F)c2)C(=O)O1 [Compound 10, N-[[(5S)-3-[3-fluoro-4-((4-(3-(3-methyl-isothiazol-4-yl)-iso-xazolyl)methylidene)piperidinyl)phenyl]-2-oxo-5-oxazolidinyl]methyl]acetamide] | 16 (≈ 31.3 µM) | 8 (≈ 15.6 µM) | 16 (≈ 31.3 µM) | 16 (≈ 31.3 µM) | 8 (≈ 15.6 µM) | 8 (≈ 15.6 µM) | 16 (≈ 31.3 µM) | 8 (≈ 15.6 µM) | 4 (≈ 7.82 µM) | 4 (≈ 7.82 µM) | 16 (≈ 31.3 µM) | 2 (≈ 3.91 µM) | 4 (≈ 7.82 µM) | 2 (≈ 3.91 µM) | 16 (≈ 31.3 µM) | 8 (≈ 15.6 µM) | 8 (≈ 15.6 µM) | 16 (≈ 31.3 µM) | 8 (≈ 15.6 µM) | 2 (≈ 3.91 µM) | Minimum inhibition concentration (MIC) (E. faecium C6301): 8 µg/mL (≈ 15.6 µM) |
| CCOC(=O)C=C1CCN(c2ccc(N3C[C@H](CNC(C)=O)OC3=O)cc2F)CC1 [Compound 11, N-[[(5S)-3-[3-fluoro-4-(4-ethoxycarbonylmethylidene-piperidinyl)phenyl]-2-oxo-5-oxazolidinyl]methyl]acetamide] | 8 (≈ 19.1 µM) | 16 (≈ 38.1 µM) | 8 (≈ 19.1 µM) | 16 (≈ 38.1 µM) | 8 (≈ 19.1 µM) | 8 (≈ 19.1 µM) | 8 (≈ 19.1 µM) | 8 (≈ 19.1 µM) | 8 (≈ 19.1 µM) | 8 (≈ 19.1 µM) | 16 (≈ 38.1 µM) | 2 (≈ 4.77 µM) | 4 (≈ 9.54 µM) | 2 (≈ 4.77 µM) | 8 (≈ 19.1 µM) | 8 (≈ 19.1 µM) | 8 (≈ 19.1 µM) | 8 (≈ 19.1 µM) | 8 (≈ 19.1 µM) | 2 (≈ 4.77 µM) | Minimum inhibition concentration (MIC) (E. faecium C6301): 8 µg/mL (≈ 19.1 µM) |
